Results reported in patent US12097192B2 (Corcept Therapeutics Incorporated, priority 2019, dated 2024).

Legend:
Assay type in all cases: in vivo, human
[1] = system: Cushing's syndrome patients; assay: Cushing's syndrome patient study: absolute eosinophils and lymphocytes; conditions: All Subjects, mITT
Description: All patients gave informed consent before participating in any study-related procedures. […] The study protocol called for patient visits to the study site at screening, on Day 1 (baseline), Weeks 2, 4, 6, 8, 10, and 12, and after a 4-week follow-up period for Group 1. For Group 2, the protocol called for patient visits to the study site at screening, on Day 1 (baseline), Weeks 2, 4, 6, 8, 10, 12, 14, and 16, and after a 4-week follow-up period. Patient dosing will be done at home, except on days of study visits. […] The safety protocol also included assessments by physical examination findings, vital signs, ECG results, pregnancy tests, clinical laboratory test results (hematology and chemistry panels), adverse events (AEs), and concomitant medications. […] It ignores noncompliance, protocol deviations, withdrawal, and anything that happens after randomization. In contrast, per-protocol (PP) analysis refers to inclusion in the analysis of only those patients who strictly adhered to the protocol. The PP analysis provides an estimate of the true efficacy of an intervention, i.e., among those who completed the treatment as planned.

[2] = system: Cushing's syndrome patients; assay: Cushing's syndrome patient study: hypertension response (24-hour ambulatory blood pressure)
Protocol: All patients gave informed consent before participating in any study-related procedures.
Response criteria for hyperglycemia were changes from baseline in glucose tolerance as measured by: ≥0.5% decrease in HbA1c, normalization or ≥50 mg/dL decrease in 2-hr OGTT glucose, or decrease in total daily insulin (≥25%) or sulfonylurea dose (≥50%). Response criteria for hypertension (HTN) was a ≥5 mm Hg decrease in mean systolic and/or diastolic blood pressure (SBP/DBP).
Response was based on ≥0.5% reduction of HbA1c associated with reduction or discontinuation of diabetes medications or clinically significant reduction (≥50 mg/dL decrease) or normalisation of the 2-hour glucose measurement from an oral glucose tolerance test (OGTT).

[3] = system: Cushing's syndrome patients; assay: Cushing's syndrome patient study: bone markers; set-up: Serμm Bone Alkaline Phosphatase mean change from Baseline to Last Observed: unit not given here; conditions: All Subjects
Description: (§1) All patients gave informed consent before participating in any study-related procedures. […] The study protocol called for patient visits to the study site at screening, on Day 1 (baseline), Weeks 2, 4, 6, 8, 10, and 12, and after a 4-week follow-up period for Group 1. For Group 2, the protocol called for patient visits to the study site at screening, on Day 1 (baseline), Weeks 2, 4, 6, 8, 10, 12, 14, and 16, and after a 4-week follow-up period. Patient dosing will be done at home, except on days of study visits. […] It ignores noncompliance, protocol deviations, withdrawal, and anything that happens after randomization. In contrast, per-protocol (PP) analysis refers to inclusion in the analysis of only those patients who strictly adhered to the protocol. The PP analysis provides an estimate of the true efficacy of an intervention, i.e., among those who completed the treatment as planned.

[4] = system: Cushing's syndrome patients; assay: Cushing's syndrome patient study: depression (BDI-II), Cushing QOL, cognitive tests; conditions: All Subjects
Description: as §1

[5] = Group 1 (100-200 mg/day, 12 weeks)
[6] = Group 2 (250-400 mg/day, 16 weeks)
[7] = mITT, Group 1 (100-200 mg/day, 12 weeks)
[8] = mITT, Group 2 (250-400 mg/day, 16 weeks)
[9] = mPP, Group 1 (100-200 mg/day, 12 weeks)
[10] = mPP, Group 2 (250-400 mg/day, 16 weeks)

Cn1cc(S(=O)(=O)N2CCC3=Cc4c(cnn4-c4ccc(F)cc4)C[C@]3(C(=O)c3cc(C(F)(F)F)ccn3)C2)cn1 [relacorilant, (R)-(1-(4-fluorophenyl)-6-((1-methyl-1H-pyrazol-4-yl)sulfonyl)-4,4a,5,6,7,8-hexahydro-1H-pyrazolo[3,4-g]isoquinolin-4a-yl) (4-(trifluoromethyl)pyridin-2-yl)methanone]
Absolute Eosinophils mean change from Baseline to Last Observed [1, 5]: 0.05 10^{super 9 | Absolute Lymphocytes mean change from Baseline to Last Observed [1, 5]: −0.15 10^{super 9 | Absolute Eosinophils mean change from Baseline to Last Observed [1, 6]: 0.05 10^{super 9 | Absolute Lymphocytes mean change from Baseline to Last Observed [1, 6]: 0.26 10^{super 9 | Absolute Eosinophils mean change from Baseline to Last Observed ([1]; Overall): 0.05 10^{super 9 | Absolute Lymphocytes mean change from Baseline to Last Observed ([1]; Overall): 0.05 10^{super 9 | hypertension response rate (≥5 mmHg reduction) ([2]; HD group (doses up to 400 mg daily), week 16): 63.6% | hypertension response rate (≥5 mmHg reduction) ([2]; LD group (doses up to 200 mg daily), week 12): 41.7% | nocturnal and daytime blood pressures ([2]; hypertension responders): clinically significant improvement | Serμm Bone Alkaline Phosphatase mean change from Baseline to Last Observed [3, 7]: 1.82 | Serμm Osteocalcin mean change from Baseline to Last Observed [3, 7]: 4.57 µg/L | Urinary NTx mean change from Baseline to Last Observed [3, 7]: 2.21 nmolBCE/mmol | Serμm Bone Alkaline Phosphatase mean change from Baseline to Last Observed [3, 8]: −1.09 | Serμm Osteocalcin mean change from Baseline to Last Observed [3, 8]: 1.33 µg/L | Urinary NTx mean change from Baseline to Last Observed [3, 8]: 0.63 nmolBCE/mmol | Serμm Bone Alkaline Phosphatase mean change from Baseline to Last Observed ([3]; mITT, Overall): 0.41 | Serμm Osteocalcin mean change from Baseline to Last Observed ([3]; mITT, Overall): 3 µg/L | Urinary NTx mean change from Baseline to Last Observed ([3]; mITT, Overall): 1.37 nmolBCE/mmol | Serμm Bone Alkaline Phosphatase mean change from Baseline to Last Observed [3, 9]: 1.82 | Serμm Osteocalcin mean change from Baseline to Last Observed [3, 9]: 4.68 µg/L | Urinary NTx mean change from Baseline to Last Observed [3, 9]: 2.21 nmolBCE/mmol | Serμm Bone Alkaline Phosphatase mean change from Baseline to Last Observed [3, 10]: −1.09 | Serμm Osteocalcin mean change from Baseline to Last Observed [3, 10]: 1.33 µg/L | Urinary NTx mean change from Baseline to Last Observed [3, 10]: 0.63 nmolBCE/mmol | Serμm Bone Alkaline Phosphatase mean change from Baseline to Last Observed ([3]; mPP, Overall): 0.41 | Serμm Osteocalcin mean change from Baseline to Last Observed ([3]; mPP, Overall): 3.06 µg/L | Urinary NTx mean change from Baseline to Last Observed ([3]; mPP, Overall): 1.37 nmolBCE/mmol | BDI-II Total Score mean change from Baseline to Last Observed [4, 7]: −3.06 | Cushing QOL Score mean change from Baseline to Last Observed [4, 7]: 6.25 | Part A - Total Time to Complete T mean change from Baseline to Last Observed [4, 7]: −3.65 | Part B - Total Time to Complete T mean change from Baseline to Last Observed [4, 7]: −15.94 | BDI-II Total Score mean change from Baseline to Last Observed [4, 8]: −3.94 | Cushing QOL Score mean change from Baseline to Last Observed [4, 8]: 8.07 | Part A - Total Time to Complete T mean change from Baseline to Last Observed [4, 8]: −4.67 | Part B - Total Time to Complete T mean change from Baseline to Last Observed [4, 8]: −34.6 | BDI-II Total Score mean change from Baseline to Last Observed ([4]; mITT, Overall): −3.48 | Cushing QOL Score mean change from Baseline to Last Observed ([4]; mITT, Overall): 7.13 | Part A - Total Time to Complete T mean change from Baseline to Last Observed ([4]; mITT, Overall): −4.13 | Part B - Total Time to Complete T mean change from Baseline to Last Observed ([4]; mITT, Overall): −24.69 | BDI-II Total Score mean change from Baseline to Last Observed [4, 9]: −4.47 | Cushing QOL Score mean change from Baseline to Last Observed [4, 9]: 6.25 | Part A - Total Time to Complete T mean change from Baseline to Last Observed [4, 9]: −3.65 | Part B - Total Time to Complete T mean change from Baseline to Last Observed [4, 9]: −15.94 | BDI-II Total Score mean change from Baseline to Last Observed [4, 10]: −3.87 | Cushing QOL Score mean change from Baseline to Last Observed [4, 10]: 7.64 | Part A - Total Time to Complete T mean change from Baseline to Last Observed [4, 10]: −4.67 | Part B - Total Time to Complete T mean change from Baseline to Last Observed [4, 10]: −34.6 | BDI-II Total Score mean change from Baseline to Last Observed ([4]; mPP, Overall): −4.19 | Cushing QOL Score mean change from Baseline to Last Observed ([4]; mPP, Overall): 6.9 | Part A - Total Time to Complete T mean change from Baseline to Last Observed ([4]; mPP, Overall): −4.13 | Part B - Total Time to Complete T mean change from Baseline to Last Observed ([4]; mPP, Overall): −24.69
